Data taken from US6241963A, “Dopamine and serotonin transporter ligands and imaging agents” (priority 1996, dated 2001).
Values joined by “and” are separate entries in the source; they are usually repeats but may differ in a detail not shown here. Equal entries are not always repeated. “Also recorded” adds a separate entry of the source. Where two headings read alike, the source gives them in different places.

What was measured:
[1] = molecular target: T1, rat striatal homogenates (dopamine transporter) (Rattus norvegicus, UniProt P23977); assay: In vitro binding with rat striatal homogenates using [^125 I]IPT as the ligand; settings: [^125 I]IPT as ligand
T1 construct: from tissue; host or cells: rat striatum homogenate
T1 sequence (P23977 whole entry): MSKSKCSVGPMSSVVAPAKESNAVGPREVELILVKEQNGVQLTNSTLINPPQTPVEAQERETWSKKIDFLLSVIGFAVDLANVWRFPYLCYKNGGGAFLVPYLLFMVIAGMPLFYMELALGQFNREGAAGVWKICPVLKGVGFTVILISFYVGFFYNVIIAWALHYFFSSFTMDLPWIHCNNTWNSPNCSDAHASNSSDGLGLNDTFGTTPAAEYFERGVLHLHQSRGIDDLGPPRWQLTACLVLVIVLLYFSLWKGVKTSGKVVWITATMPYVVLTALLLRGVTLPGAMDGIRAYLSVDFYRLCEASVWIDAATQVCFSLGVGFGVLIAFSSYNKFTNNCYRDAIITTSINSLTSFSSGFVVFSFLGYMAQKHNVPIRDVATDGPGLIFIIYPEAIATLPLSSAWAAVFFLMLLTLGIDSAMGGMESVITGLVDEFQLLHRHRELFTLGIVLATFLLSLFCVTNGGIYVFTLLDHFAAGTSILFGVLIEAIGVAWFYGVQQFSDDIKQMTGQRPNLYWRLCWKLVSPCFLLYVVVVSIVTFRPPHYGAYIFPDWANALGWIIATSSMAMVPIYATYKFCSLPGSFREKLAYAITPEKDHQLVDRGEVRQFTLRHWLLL

[2] = assay type: in vivo, Male Sprague-Dawley rats
Procedure: Male Sprague-Dawley rats (225-300 g) allowed free access to food and water were used for in vivo biodistribution studies. Kung, 1984, supra; Kung, 1985, supra. While under ether anesthesia, 0.2 mL of a saline solution containing 1.19a, 1.19b, 1.20a, 1.20b or 1.21 (50-100 μCi) was injected directly into the femoral vein of rats, and the rats were sacrificed by cardiac excision at various time points post-injection. The organs of interest were removed and weighed, and the radioactivity was counted with an automatic gamma counter (Packard 5000). The percentage dose per organ was calculated by a comparison of the tissue counts to suitably diluted aliquots of the injected material. Total activities of blood and muscle were calculated under the assumption that they were 7% and 40% of the total body weight, respectively.
(§1) The major criteria for determining the potential usefulness of in vivo dopamine transporter imaging agents are based on an animal biodistribution study. In this case, rats were used as an animal model. After an intravenous injection of the Tc-99m labeled compounds, the values of initial brain uptake (% dose/whole organ) at 2 minutes post intravenous injection are used to measure the ability to penetrate the intact blood-brain barrier. Compounds displaying higher brain uptake are the better agents (minimum requirement >0.1% dose in brain). The second criteria is the specific uptake in the striatum region of the brain, where dopamine transporters are located. The uptake value (% dose/gram) of the striatum (ST) is divided by the background area, cerebellum (CB; essentially devoid of dopamine transporter); the ratio of ST/CB is an indicator for specific uptake (minimum requirement for ST/CB >1.5). Five structurally similar tropane derivatives were examined in this biological study. (Tables 1.1 to 1.4).
Male Sprague-Dawley rats (225-300 g) that were allowed free access to food and water were used for in vivo biodistribution studies. (Kung, 1984, supra; Kung, 1985, supra). While under halothane anesthesia, 0.2 mL of a saline solution containing 3.24 to 3.34 ([…]) was injected directly into the femoral vein of rats, and they were sacrificed by cardiac excision at various time points post-injection. The organs of interest were removed and weighed, and the radioactivity was counted with an automatic gamma counter (Packard 5000). The percentage dose per organ was calculated by a comparison of the tissue counts to suitably diluted aliquots of the injected material. Total activities of blood and muscle were calculated under the assumption that they were 7% and 40% of the total body weight, respectively.

dopamine transporters [3] = molecular target: dopamine transporters (Rattus norvegicus, UniProt P23977); assay type: in vivo, Male Sprague-Dawley rats; settings: rats, iv
Chain of dopamine transporters (Rattus norvegicus, UniProt P23977) (P23977 whole entry): as above
Procedure: For dopamine transporter imaging agents, the target area of the brain is the striatum, where dopamine transporters are highly concentrated. The cerebellum region is suitable for use as the background region, because it has no dopamine transporters. The specific uptake is measured by the ratio of % dose/gram of striatum divided by % dose/gram of cerebellum (ST/CB ratio)--the higher the value, the better the specific uptake, and the more promising as a dopamine transporter imaging agent.
(§2) Regional brain distribution in rats was obtained after an injection of 1.19a, 1.19b, 1.20a, 1.20b or 1.21. Samples from different brain regions (cortex, striatum, hippocampus, and cerebellum) were dissected, weighed and counted, and the percentage dose per gram of sample was calculated by comparing the sample counts with the count of the diluted initial dose. The uptake ratio of each region was obtained by dividing the percentage dose per gram of that region by that of the cerebellum. For blocking studies, rats were injected with either β-CIT or haloperidol (iv, 1 mg/Kg) 5 min prior to injection of 1.19a. The rats were dissected and brain tissue samples were counted as described above. The specific uptake of the compound was expressed as ratio of ST/CB (% dose/g of striatum divided by the same of cerebellum).
as §1
as §2, with “3.24 to 3.34.” for “1.19a, 1.19b, 1.20a, 1.20b or 1.21.”, “3.25.” for “1.19a.”, “above.” for “above. The specific uptake of the compound was expressed as ratio of ST/CB (% dose/g of striatum divided by the same of cerebellum).”

dopamine transporters [4] = settings: cited from earlier work; for Literature binding / localization / biodistribution, in words: in vivo; for Time for reaching optimal uptake ratio / equilibrium: basal ganglia versus frontal cortex
[5] = Partition coefficient between 1-octanol (n-octanol) and buffer; assay type: physicochemical; settings: for Partition coefficient (P.C.), 1-octanol/pH 7.0 buffer: 1-octanol/pH 7.0 phosphate buffer
Procedure: (§3) Partition coefficients were measured by mixing each Tc-99m compound with 3 g each of 1-octanol and buffer (pH 7.0 or 7.4, 0.1 M phosphate) in a test tube. The test tube was vortexed for 3 minutes at room temperature, then centrifuged for 5 minutes. Two weighed samples (0.5 g each) from the 1-octanol and buffer layers were counted in a well counter. The partition coefficient was determined by calculating the ratio of cpm/g of octanol to that of buffer. Samples from the octanol layer were repartitioned until consistent partition coefficient values were obtained. The measurement was repeated 3 times.
as §3, with “The partition coefficient was measured” for “Partition coefficients were measured”, “mixing the” for “mixing each”, “3 min” for “3 minutes”

dopamine transporter = assay: Blocking studies in rats (pretreatment or co-injection with competing agent); assay type: in vivo, Male Sprague-Dawley rats; settings: 1 mg/kg iv, 5 min before tracer, rats
Procedure: as §2
as §2, with “3.24 to 3.34.” for “1.19a, 1.19b, 1.20a, 1.20b or 1.21.”, “3.25.” for “1.19a.”, “above.” for “above. The specific uptake of the compound was expressed as ratio of ST/CB (% dose/g of striatum divided by the same of cerebellum).”

2b-{oxo[N,N'-bis-(2'-mercaptoethyl)-ethylenediaminato)]rhenium (V)-methylamino}-3b-(4-chlorophenyl)tropane [Compound 1.22]
Ki [1]: 14 nM

CN1[C@H]2CC[C@@H]1[C@@H](C[N+]13CC[S][99Tc-]14(=[O])[S]CC[N]4CC3)[C@@H](c1ccc(Cl)cc1)C2 (single isomer, unassigned; peak b) [peak B (1.19a)]
Blood uptake, 2 min ([2]; rats, iv, 2 min): 4.02 ± 0.20 % dose/organ
Brain uptake, 2 min ([2]; rats, iv, 2 min): 0.28 ± 0.01 % dose/organ
Heart uptake, 2 min ([2]; rats, iv, 2 min): 1.28 ± 0.15 % dose/organ
Kidney uptake, 2 min ([2]; rats, iv, 2 min): 4.47 ± 0.69 % dose/organ
Liver uptake, 2 min ([2]; rats, iv, 2 min): 9.07 ± 1.66 % dose/organ
Lung uptake, 2 min ([2]; rats, iv, 2 min): 6.00 ± 1.11 % dose/organ
Muscle uptake, 2 min ([2]; rats, iv, 2 min): 41.46 ± 11.33 % dose/organ
Skin uptake, 2 min ([2]; rats, iv, 2 min): 3.43 ± 0.62 % dose/organ
Spleen uptake, 2 min ([2]; rats, iv, 2 min): 0.27 ± 0.03 % dose/organ
Brain uptake, 2 min ([2]; rats, iv, 2 min, listed as Peak B): 0.28 % dose/organ
Blood uptake, 60 min ([2]; rats, iv, 60 min): 1.89 ± 0.21 % dose/organ
Brain uptake, 60 min ([2]; rats, iv, 60 min): 0.12 ± 0.02 % dose/organ
Heart uptake, 60 min ([2]; rats, iv, 60 min): 0.19 ± 0.06 % dose/organ
Kidney uptake, 60 min ([2]; rats, iv, 60 min): 1.87 ± 0.80 % dose/organ
Liver uptake, 60 min ([2]; rats, iv, 60 min): 18.71 ± 2.54 % dose/organ
Lung uptake, 60 min ([2]; rats, iv, 60 min): 1.23 ± 0.89 % dose/organ
Muscle uptake, 60 min ([2]; rats, iv, 60 min): 8.60 ± 2.51 % dose/organ
Skin uptake, 60 min ([2]; rats, iv, 60 min): 4.11 ± 0.62 % dose/organ
Spleen uptake, 60 min ([2]; rats, iv, 60 min): 0.41 ± 0.24 % dose/organ
ST/CB ratio, 60 min (dopamine transporters [3]): 3.79

COC(=O)[C@H]1[C@@H](c2ccc(F)cc2)C[C@@H]2CC[C@H]1N2C [CFT (WIN35,428)]
Literature binding / localization / biodistribution, in words (dopamine transporters [4]): much higher binding affinity and selectivity to dopamine reuptake sites

CN1[C@H]2CC[C@@H]1[C@@H](CN(CCS)CCNCCS)[C@@H](c1ccc(Cl)cc1)C2 [Compound 1.16a]
Ki [1]: 7 nM

CN1[C@H]2CC[C@@H]1[C@@H](C(=O)[N+]13CC[S][99Tc-]14(=[O])[S]CC[N]4CC3)[C@@H](c1ccc(Cl)cc1)C2 (stereo partly shown) [Compound 1.19b]
Partition coefficient (P.C.), 1-octanol/pH 7.0 buffer [5]: 230
Brain uptake, 2 min ([2]; rats, iv, 2 min): 0.39 ± 0.12 % dose/organ
Brain uptake, 30 min ([2]; rats, iv): 0.21 ± 0.03 % dose/organ
Brain uptake, 60 min ([2]; rats, iv, 60 min): 0.11 ± 0.02 % dose/organ
ST/CB ratio, 30 min (dopamine transporters [3]): 2.78
ST/CB ratio, 60 min (dopamine transporters [3]): 2.78 and 2.78 ± 0.32

CN1[C@H]2CC[C@@H]1[C@@H](C[N+]13CC[S][99Tc-]14(=[O])[S]CC[N]4CC3)[C@@H](c1ccc(F)cc1)C2 (stereo partly shown) [Compound 1.20a]
Partition coefficient (P.C.), 1-octanol/pH 7.0 buffer [5]: 99-1818 and 99
Brain uptake, 2 min ([2]; rats, iv, 2 min): 0.37 ± 0.09 % dose/organ
Brain uptake, 60 min ([2]; rats, iv, 60 min): 0.098 ± 0.014 % dose/organ
ST/CB ratio, 60 min (dopamine transporters [3]): 2.18 and 2.18 ± 0.32

CN1[C@H]2CC[C@@H]1[C@@H](C(=O)[N+]13CC[S][99Tc-]14(=[O])[S]CC[N]4CC3)[C@@H](c1ccc(F)cc1)C2 (stereo partly shown) [Compound 1.20b]
Partition coefficient (P.C.), 1-octanol/pH 7.0 buffer [5]: 99-1818 and 104
Brain uptake, 2 min ([2]; rats, iv, 2 min): 0.31 ± 0.09 % dose/organ
Brain uptake, 60 min ([2]; rats, iv, 60 min): 0.07 ± 0.010 % dose/organ
ST/CB ratio, 60 min (dopamine transporters [3]): 1.92 and 1.92 ± 0.28

CN1[C@H]2CC[C@@H]1[C@@H](C[N+]13CC[S][99Tc-]14(=[O])[S]CC[N]4CC3)[C@@H](c1ccc(Br)cc1)C2 (stereo partly shown) [Compound 1.20c]
Brain uptake, 2 min ([2]; rats, iv, 2 min): 0.41 ± 0.03 % dose/organ
Brain uptake, 60 min ([2]; rats, iv, 60 min): 0.18 ± 0.01 % dose/organ
Brain uptake and specific striatal uptake, in words (dopamine transporters [3]): high initial uptake and high specific retention in brain
ST/CB ratio, 60 min (dopamine transporters [3]): 2.82 and 2.82 ± 0.19

CN1[C@H]2CC[C@@H]1[C@@H](C[N+]13CC[S][99Tc-]14(=[O])[S]CC[N]4C(=O)C3)[C@@H](c1ccc(Cl)cc1)C2 (stereo partly shown) [Compound 1.21]
Partition coefficient / lipophilicity, comparison in words [5]: almost tenfold higher partition coefficient
Partition coefficient (P.C.), 1-octanol/pH 7.0 buffer [5]: 1818
Brain uptake, 60 min, footnote c ([2]; data from rats sacrificed at 30 minutes): 0.07 ± 0.014 % dose/organ
Brain uptake lower than 1.19a and 1.19b ([2]; rats, iv, 2 min): at least 300%
Brain uptake, 2 min ([2]; rats, iv, 2 min): 0.11 ± 0.02 % dose/organ
Brain uptake, 30 min ([2]; rats, iv): 0.070 ± 0.014 % dose/organ
Brain uptake and specific striatal uptake, in words (dopamine transporters [3]): lowest brain uptake
ST/CB ratio, 30 min (dopamine transporters [3]): 1.17
ST/CB ratio, 60 min (dopamine transporters [3]): 1.17 ± 0.010
ST/CB ratio, 60 min (dopamine transporters [3]; listed as 21): 1.17

COC(=O)[C@H]1[C@@H](c2ccc(Cl)cc2)C[C@@H]2CC[C@H]1N2CC[S][Re-]12(=[O])[S]CC[N+]1(C)CC[S]2 (stereo partly shown) [Compound 3.23]
Ki [1]: 0.3 nM

COC(=O)C1C(c2ccc(F)cc2)CC2CCC1N2CCCN(CC[S-])CC([O-])=NCC[S-].[O]=[99Tc+3] (stereo not shown) [Technepine]
Literature binding / localization / biodistribution, in words (dopamine transporters [4]): poor biodistribution
Literature binding / localization / biodistribution, in words (dopamine transporters [4]; listed as technepine): less favorable biological properties

COC(=O)[C@H]1[C@@H](c2ccc([123I])cc2)C[C@@H]2CC[C@H]1N2CCCF [[^123 I]-β-CIT-FP]
Time for reaching optimal uptake ratio / equilibrium (dopamine transporters [4]): less than one hour

COC(=O)[C@H]1[C@@H](OC(=O)c2ccccc2)C[C@@H]2CC[C@H]1N2C [cocaine]
Literature binding / localization / biodistribution, in words (dopamine transporters [4]): largely concentrated in the basal ganglia

O=C(CCCN1CCC(O)(c2ccc(Cl)cc2)CC1)c1ccc(F)cc1 [haloperidol, reference compound]
Effect of pretreatment on specific striatal uptake of tracer (dopamine transporter): no blocking effect was observed

COC(=O)[C@H]1[C@@H](c2ccc(I)cc2)C[C@@H]2CC[C@H]1N2C [β-CIT, N-methyl-2b-carbomethoxy-3b-(4-iodophenyl)tropane, reference compound]
Effect of pretreatment on specific striatal uptake of tracer (dopamine transporter): could be blocked; also recorded: showed blocking of the specific uptake
Effect of pretreatment on specific striatal uptake of tracer (dopamine transporter; listed as RTI-55): could be blocked
Time for reaching optimal uptake ratio / equilibrium (dopamine transporters [4]): > 18 h
Literature binding / localization / biodistribution, in words (dopamine transporters [4]): much higher binding affinity and selectivity to dopamine reuptake sites
